Source: patent US20260191810A1, “CAROTENOID COMPOSITIONS AND USES THEREOF” (L.E.A.F. HOLDINGS GROUP LLC, priority 2019, published 2026)

What was measured:
[1] = Liposomal CTC and MTC PK, single slow intravenous bolus, plasma HPLC; assay type: in vivo; conditions: Balb/c mice
Procedure: 5 μL of each plasma sample was mixed with 395 μL methanol containing 1% formic acid. Sample mixtures were well mixed by vortexing. […] Samples were vortexed and then centrifuged at 10000 RPM for 10 min at room temperature. 200 μL of supernatant was removed from each sample without disturbing pellet and analyzed by HPLC. If the amount of plasma permitted, this analysis was duplicated.
The concentration of STC in the plasma samples was quantified by standard curve constructed by analyzing plasma samples containing known amount of STC. PK profiles were analyzed.

mouse CLP sepsis model = assay: Survival Study 1 (TP-936), CLP sepsis efficacy; assay type: in vivo, C57BL/6 mice; conditions: CLP mice treated with saline and imipenem (imipenem-treated control)
Source text: Male and/or female C57BL/6 mice ordered from Envigo Laboratories or the Jackson Lab (Bar Harbor, Maine) were acclimated to housing conditions and handled in accordance with Animal Use Protocol (AUP) number TP-05. The animals were acclimated for approximately 1 week prior to study start. Only animals deemed healthy were included in this study. Animals were fed irradiated Teklad Global Rodent Diet 2918 and water ad libitum. Mice were group housed 5/cage in static cages with irradiated Teklad ⅛″ corn cob bedding 7902 inside bioBubble® Clean Rooms that provide H.E.P. A filtered air into the bubble environment at 100 complete air changes per hour. The environment was controlled to a temperature range of 74°±5° F. and a humidity range of 30-70%. Treatment groups were identified by cage card. Individual mice were identified by indelible marker on the base of the tail. All procedures carried out in this experiment were conducted in compliance with the laws, regulations, and guidelines of the National Institutes of Health and with the approval of the TransPharm Animal Care and Use Committee.
On Day −1, male and/or female mice were anesthetized through use of isoflurane and brought to a surgical plane. […]
Animals were monitored continually post-surgery, at least once every 2-3 minutes for approximately 30 minutes, until the animals had recovered and were able to move about on their own. […]

Row | SMILES | AUC [1] [µg·h/mL] | T1/2 [1] [min] | mortality (mouse CLP sepsis model) [%]
1 | CC(/C=C/C=C(\C)C(=O)O)=C\C=C\C=C(C)\C=C\C=C(/C)C(=O)O [STC free drug, sodium trans-crocetinate] | 260 | 28.2 | –
2 | C[C@@H](O)[C@H]1C(=O)N2C(C(=O)O)=C(SCCN=CN)C[C@H]12 [imipenem] | – | – | 50
